Results on 54 compounds are retold here after ChEMBL document CHEMBL1156829 (Proc Natl Acad Sci U S A, 2008).

Series [1] is described as follows: NOVARTIS: Cytotoxicity against human hepatocellular carcinoma cell line (Huh7). As to conditions: Huh7 cells (hepatocellular carcinoma cell line). Format: toxicity, cell-based, Huh-7.
Series [2] deals with Plasmodium falciparum. Description: NOVARTIS: Inhibition of Plasmodium falciparum W2 (drug-resistant) proliferation in erythrocyte-based infection assay. In kind it is functional, organism-based. To be noted: Plasmodium falciparum, W2; read-out: EC50.
Series [3] has as its system Plasmodium falciparum. Description: NOVARTIS: Inhibition of Plasmodium falciparum 3D7 (drug-susceptible) proliferation in erythrocyte-based infection assay. Format: functional, organism-based. To be noted: Plasmodium falciparum, 3D7.

For orientation: CC50 means the concentration at which the toxic effect on the cells reaches its halfway point. Low values mean greater toxicity to the cells, high ones lower toxicity to the cells. As a reminder, the EC50 is the midpoint of the concentration-response curve. As to `CCOc1ccc(-c2nc(NC(=O)Cc3cccc(OC)c3)sc2C)cc1`, in series [1], the half-maximal cytotoxic concentration (CC50) is greater than 10000 nM. The figures for the EC50 in the series with Plasmodium falciparum [2] and in the series on Plasmodium falciparum [3] were 417 nM and 273 nM, respectively.
For `CN(C)c1ccc(-c2nc(-c3ccc(-c4[nH]c(-c5ccc(N(C)C)cc5)nc4-c4ccccc4)cc3)c(-c3ccccc3)[nH]2)cc1`, in that order: 68400 nM, 2910 nM and 7820 nM.
`Oc1cccc(C=Nc2ccccc2)c1O`: the CC50 in series [1] was greater than 10300 nM. For the same compound, the values for the 50% effective concentration (EC50) with Plasmodium falciparum [2] and with Plasmodium falciparum [3] were 435 nM and 360 nM, respectively.
For `c1ccc2cc3c(N4CCN(CCCN5CCN(c6ccnc7cc8ccccc8cc67)CC5)CC4)ccnc3cc2c1`, in that order: greater than 10000 nM, 417 nM and 79.4 nM.
`Brc1ccc(Nc2nc3ccccc3nc2Nc2ccc(Br)cc2)cc1`: the CC50 in series [1] amounted to 20600 nM. The figures for the EC50 in the series on Plasmodium falciparum [2] and in the series on Plasmodium falciparum [3] were 854 nM and 809 nM, respectively.
In turn, `CCOC(=O)CSC1=Nc2ccccc2C2=NC(Cc3ccccc3)C(=O)N12` (configuration not stated) came in with a CC50 in series [1] greater than 10000 nM. For the same compound, the EC50 with Plasmodium falciparum [2] was 407 nM; in the series on Plasmodium falciparum [3] it was greater than 1250 nM.
Taken in the same sequence, the figures for `O=C1C(=O)N(Cc2cccc3ccccc23)c2ccc(Br)cc21` were greater than 100000 nM, 4230 nM and greater than 12500 nM.
Taken in the same sequence, the figures for `O=C(NCc1ccccc1)NC1CC2CCCC(C1)N2Cc1ccccc1` (configuration not stated) were greater than 10000 nM, 423 nM and 879 nM.
Taken in the same sequence, the figures for `CC(=NNC(=O)c1ccc([N+](=O)[O-])cc1)c1cccc([N+](=O)[O-])c1` were greater than 10000 nM, greater than 406 nM and greater than 1410 nM.
Compound `CCn1c(SCC(=O)Nc2ccc(OC)cc2)nc2ccsc2c1=O` gave a CC50 in series [1] greater than 11700 nM. In addition, the 50% effective concentration (EC50) is 475 nM in the series with Plasmodium falciparum [2] and greater than 1250 nM with Plasmodium falciparum [3].
Taken in the same sequence, the figures for `Cc1ccc(C)c(NC2=C(c3ccc(C(F)(F)F)cc3)C(=O)c3ccccc32)c1` were greater than 100000 nM, 4220 nM and 1850 nM.
For `CCCCN(C)CCCNC(=O)c1ccc(Cl)c(NC(=O)Nc2ccc(Cl)c(Cl)c2)c1`, in that order: 20300 nM, 822 nM and 233 nM.
As for `CCN1/C(=C/C(=C/c2sc3ccccc3[n+]2CC)NC)Sc2ccccc21`, the CC50 in series [1] is greater than 10000 nM. In addition, the EC50 in the series on Plasmodium falciparum [2] was greater than 422 nM; with Plasmodium falciparum [3], greater than 1250 nM.
Regarding `O=C(NC1CCN(Cc2ccccc2)CC1)[C@@H](c1ccccc1)N1Cc2ccccc2C1=O`, in series [1], the CC50 is greater than 100000 nM. Further, the EC50 in the series on Plasmodium falciparum [2] was 4210 nM; with Plasmodium falciparum [3], greater than 12500 nM.
The compound `CC(=O)OCN1C(=O)N(COC(C)=O)C2C1N(COC(C)=O)C(=O)N2COC(C)=O` (configuration not stated) returned a CC50 in series [1] greater than 100000 nM. Besides, the EC50 in the series with Plasmodium falciparum [2] is 4220 nM; in the series on Plasmodium falciparum [3], greater than 11600 nM.
As to `O=C(/C=C\c1ccccc1)Nc1ccc2[nH]c(-c3ccc(NC(=O)/C=C/c4ccccc4)cc3)nc2c1`, the CC50 in series [1] was greater than 10000 nM. Also, the EC50 with Plasmodium falciparum [2] is 425 nM; in the series on Plasmodium falciparum [3] it was 254 nM.
Taken in the same sequence, the figures for `Cc1ccc(CN2CCN(Cc3cn(C(C)C)c4ccccc34)CC2CCO)o1` (configuration not stated) were greater than 100000 nM, 4210 nM and greater than 12500 nM.
On to `CCOC(=O)c1cccc(NC(=O)CCn2nc(C)c3c(C)n(-c4ccccc4)nc3c2=O)c1`, for which the CC50 in series [1] is greater than 100000 nM. Further, the EC50 in the series on Plasmodium falciparum [2] turned out to be 4270 nM; in the series on Plasmodium falciparum [3], 3060 nM.
For `O=Cc1c(OCc2ccc(Cl)cc2Cl)ccc2ccccc12`, in that order: greater than 10000 nM, 426 nM and 719 nM.
For `Clc1ccc(-c2c[n+](Cc3ccccc3Cl)c3n2CCC3)cc1Cl`, in that order: greater than 30900 nM, 1310 nM and 749 nM.
Regarding `CCC(C)NC(=O)c1c[nH]c2ccc(S(=O)(=O)N3CCc4ccccc43)cc2c1=O` (configuration not stated), the CC50 in series [1] is greater than 10000 nM. In addition, the EC50 was 424 nM in the series on Plasmodium falciparum [2] and greater than 1250 nM with Plasmodium falciparum [3].
`C=CCNC(=O)c1ccc2c(c1)N=CN(CCOc1ccccc1)C2` gave a CC50 in series [1] greater than 10000 nM. Also, the EC50 worked out at 419 nM in the series with Plasmodium falciparum [2] and 441 nM in the series on Plasmodium falciparum [3].
Taken in the same sequence, the figures for `OCCNc1nc(Nc2ccccc2O)nc2ccccc12` were 58700 nM, 2470 nM and 1860 nM.
Consider `COc1cccc(C(=O)N(CCCC(C)Nc2cc(OC)cc3cccnc23)Cc2ccc(F)cc2)c1` (configuration not stated), for which half-maximal cytotoxicity in series [1] (CC50) was put at 3730 nM. Moreover, the EC50 came out at 154 nM in the series on Plasmodium falciparum [2] and 666 nM in the series with Plasmodium falciparum [3].
For `COc1nccnc1NS(=O)(=O)c1ccc(NC(=O)c2cc3ccccc3oc2=O)cc1`, in that order: greater than 10000 nM, greater than 428 nM and greater than 1250 nM.
In turn, `CCN(CC)c1cc(-c2ccccn2)nc(-c2ccccn2)n1` came in with a CC50 in series [1] greater than 10000 nM. Further, the EC50 with Plasmodium falciparum [2] was 418 nM; in the series on Plasmodium falciparum [3], 578 nM.
Take `FC(F)(F)c1cccc(-c2cncc(N3CCN(c4ccccn4)CC3)n2)c1`: in series [1], the CC50 was 45700 nM. Moreover, the EC50 came out at 1910 nM in the series on Plasmodium falciparum [2] and 5770 nM in the series on Plasmodium falciparum [3].
The compound `O=C(/C=C/Nc1ccccc1NS(=O)(=O)c1ccc([N+](=O)[O-])cc1)c1ccccc1` returned a CC50 in series [1] greater than 10000 nM. For the same compound, the concentration for a half-maximal effect (EC50) in the series on Plasmodium falciparum [2] was 419 nM; in the series with Plasmodium falciparum [3], greater than 1250 nM.
In turn, `CCn1cc(C(=O)N2CCC(C(=O)c3nccs3)CC2)c(C)n1` gave a CC50 in series [1] greater than 10000 nM. Moreover, the concentration giving a half-maximal response (EC50) with Plasmodium falciparum [2] was greater than 418 nM; in the series on Plasmodium falciparum [3] it was greater than 1250 nM.
Taken in the same sequence, the figures for `O=C(c1ccc2c(c1)OCO2)N1CCOC(c2ccc(Cl)cc2)C1` (configuration not stated) were greater than 100000 nM, 4110 nM and 1630 nM.
`CCOc1ccc(C2C(=O)N(C3CCCCC3)CC(=O)N2Cc2ccc(F)cc2)cc1OC` (configuration not stated) displayed a cytotoxic concentration (CC50) in series [1] greater than 100000 nM. The figures for the EC50 in the series with Plasmodium falciparum [2] and in the series on Plasmodium falciparum [3] were 4150 nM and 4560 nM, respectively.
In series [1], `Cc1ccc(-c2cc(-c3ccccc3)c(C#N)c(SCC(O)C[S+]([O-])Cc3ccccc3)n2)cc1` (configuration not stated) gave a 50% cytotoxic concentration (CC50) of 39900 nM. In addition, the EC50 in the series with Plasmodium falciparum [2] is 1650 nM; in the series with Plasmodium falciparum [3] it was 7170 nM.
Taken in the same sequence, the figures for `CCN(CC)CCCC(C)Nc1cc(/C=C/c2ccc([N+](=O)[O-])cc2)nc2cc(OC)ccc12` (configuration not stated) were greater than 10000 nM, 410 nM and 479 nM.
In series [1], `Cc1ccc(Nc2nc(NCc3ccco3)c3ccccc3n2)cc1` gave a 50% cytotoxic concentration (CC50) of 5270 nM. For the same compound, the EC50 in the series on Plasmodium falciparum [2] was determined as 216 nM; in the series on Plasmodium falciparum [3], 126 nM.
For `COc1cccc(-c2cc(N=C(NCc3ccco3)SC)n[nH]2)c1`, in that order: 70400 nM, 2870 nM and greater than 11300 nM.
For `Ic1ccc(NCc2cn3ccccc3n2)cc1`, in that order: greater than 100000 nM, 4070 nM and 6370 nM.
Taken in the same sequence, the figures for `O=c1cc(NC2CCN(CCCc3ccccc3)CC2)c2cc(Cl)ccc2o1` were 20500 nM, 863 nM and 408 nM.
`CCN(CC)CCCN(Cc1cc2cc3c(cc2[nH]c1=O)OCCO3)C(=S)Nc1cccc(Cl)c1` displayed a CC50 in series [1] of 21200 nM. In addition, the EC50 with Plasmodium falciparum [2] was determined as 890 nM; with Plasmodium falciparum [3], 1160 nM.
For `CCCCCCCCOC(=O)NCCCCCCNC(=O)OCCCCCCCC`, in that order: greater than 100000 nM, 4190 nM and greater than 12500 nM.
Taken in the same sequence, the figures for `Cc1ccc(O)c(Nc2c3c(c(C#N)c4nc5ccccc5n24)CCC3)c1` were greater than 10000 nM, 424 nM and 231 nM.
Taken in the same sequence, the figures for `O=C1c2cccc3c(C4=NN(c5ccccc5)C(c5ccc(Cl)cc5)C4)ccc(c23)C(=O)N1c1ccccc1` (configuration not stated) were greater than 10000 nM, 407 nM and greater than 1250 nM.
In series [1], `COc1ccc2nc(C)cc(Nc3ccc(Oc4ccc(Cl)c5ccccc45)c(Cl)c3)c2c1` came in with a CC50 of 19800 nM. Further, the half-maximal effective concentration (EC50) in the series on Plasmodium falciparum [2] was found to be 826 nM; with Plasmodium falciparum [3] it was 365 nM.
`CC1(C)Oc2ccc3ccc(=O)oc3c2CC1=NNC(N)=S` yielded a half-maximal cytotoxic concentration (CC50) in series [1] greater than 100000 nM. The EC50 with Plasmodium falciparum [2] is 4190 nM; with Plasmodium falciparum [3], greater than 12500 nM.
As to `O=C(CCl)Nc1ccc2c(c1)OCO2`, it took 20300 nM to reach half-maximal cytotoxicity in series [1] (CC50). Besides, the figures for the concentration giving a half-maximal response (EC50) with Plasmodium falciparum [2] and with Plasmodium falciparum [3] were 831 nM and 1900 nM, respectively.
In series [1], `N#Cc1sccc1NS(=O)(=O)c1ccc(Cl)cc1` had a CC50 greater than 10000 nM. Besides, the EC50 is greater than 413 nM with Plasmodium falciparum [2] and greater than 1250 nM in the series on Plasmodium falciparum [3].
Turning to `CCOC(=O)c1sc(Nc2c(Cl)cc(S(N)(=O)=O)cc2Cl)nc1C`, the CC50 in series [1] is greater than 10000 nM. For the same compound, the EC50 was 411 nM with Plasmodium falciparum [2] and greater than 1250 nM in the series with Plasmodium falciparum [3].
Taken in the same sequence, the figures for `C=C(C)[C@@H]1CC=C(CN2C[C@H](NC(=O)c3ccc(OC)cc3OC)C[C@H]2C(=O)OC)CC1` were greater than 10000 nM, 409 nM and 815 nM.
For `O=[N+]([O-])c1ccc(-c2csc(CO)n2)cc1`, in that order: greater than 100000 nM, 4270 nM and greater than 12500 nM.
In series [1], `CCOc1c(Cl)cc(CNC(C)C(O)c2ccccc2)cc1OC` (configuration not stated) gave a CC50 greater than 10000 nM. Further, the EC50 in the series with Plasmodium falciparum [2] came out at 427 nM; with Plasmodium falciparum [3] it was 1650 nM.
For `CN(CCCNc1ccnc2cc(Cl)ccc12)C(=O)c1cccc(F)c1`, in that order: greater than 11500 nM, 490 nM and 739 nM.
For `O=C1C(Nc2ccccc2)=C(n2nnc3ccccc32)C(=O)c2ccccc21`, in that order: 6300 nM, 259 nM and 2020 nM.
Compound `CC[n+]1c(/C=C/C=C2\N(C)c3ccccc3C2(C)C)n(CCCOC(C)=O)c2ccccc21` displayed a CC50 in series [1] greater than 10000 nM. Besides, the results for the EC50 with Plasmodium falciparum [2] and in the series on Plasmodium falciparum [3] were 416 nM and 322 nM, respectively.
In series [1], `Cc1ccc(-c2cn3c([n+]2-c2ccc(C)cc2)CCCCC3)cc1` displayed a CC50 of 10900 nM. For the same compound, the values for the EC50 in the series on Plasmodium falciparum [2] and with Plasmodium falciparum [3] were 459 nM and 999 nM, respectively.
For `O=C(c1ccccc1)N1CCc2nc(Cc3ccc(F)cc3Cl)sc2C1`, in that order: greater than 57400 nM, 2360 nM and 4400 nM.
